Calls of active or inactive are those of the source. The rule behind the calls is not given here.
What was measured:
[1] = molecular target: T1, Protein deacetylase HDAC6 (Homo sapiens) (UniProt Q9UBN7); experiment: Inhibition of full length N-terminal GST-tagged human HDAC6 expressed in baculovirus expression system assessed as inhibition of fluorophore 7-amino-4-methylcoumarin release by fluorescence assay
T1 sequence (whole entry): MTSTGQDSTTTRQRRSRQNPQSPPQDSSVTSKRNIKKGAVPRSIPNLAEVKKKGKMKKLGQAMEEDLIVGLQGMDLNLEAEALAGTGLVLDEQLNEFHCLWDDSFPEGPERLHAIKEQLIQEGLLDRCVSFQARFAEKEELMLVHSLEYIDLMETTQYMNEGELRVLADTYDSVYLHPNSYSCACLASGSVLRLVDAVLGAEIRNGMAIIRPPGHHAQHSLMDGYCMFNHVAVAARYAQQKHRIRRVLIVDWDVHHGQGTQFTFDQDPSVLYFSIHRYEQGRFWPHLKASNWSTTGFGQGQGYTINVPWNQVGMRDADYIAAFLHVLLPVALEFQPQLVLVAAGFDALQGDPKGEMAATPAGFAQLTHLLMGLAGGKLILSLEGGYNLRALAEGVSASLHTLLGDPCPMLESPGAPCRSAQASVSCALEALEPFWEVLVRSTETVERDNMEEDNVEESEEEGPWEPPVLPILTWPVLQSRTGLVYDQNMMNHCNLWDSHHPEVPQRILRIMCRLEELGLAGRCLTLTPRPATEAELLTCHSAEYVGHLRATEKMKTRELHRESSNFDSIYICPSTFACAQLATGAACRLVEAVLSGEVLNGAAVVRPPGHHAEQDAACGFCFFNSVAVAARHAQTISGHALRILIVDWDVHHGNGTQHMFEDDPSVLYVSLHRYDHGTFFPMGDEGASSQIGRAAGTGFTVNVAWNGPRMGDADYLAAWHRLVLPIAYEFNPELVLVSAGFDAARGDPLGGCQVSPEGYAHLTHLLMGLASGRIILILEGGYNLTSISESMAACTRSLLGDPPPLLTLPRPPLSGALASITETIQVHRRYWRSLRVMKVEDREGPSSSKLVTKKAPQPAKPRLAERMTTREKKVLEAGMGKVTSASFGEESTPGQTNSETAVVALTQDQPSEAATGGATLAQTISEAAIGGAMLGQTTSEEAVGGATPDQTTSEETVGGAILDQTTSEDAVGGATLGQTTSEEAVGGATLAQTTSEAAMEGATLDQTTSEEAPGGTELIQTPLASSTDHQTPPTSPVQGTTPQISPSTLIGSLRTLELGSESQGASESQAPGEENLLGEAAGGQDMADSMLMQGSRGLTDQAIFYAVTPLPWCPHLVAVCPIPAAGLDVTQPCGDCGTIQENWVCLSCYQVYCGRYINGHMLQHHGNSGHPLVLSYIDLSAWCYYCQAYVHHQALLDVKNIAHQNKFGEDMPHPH

[2] = molecular target: T2, Histone deacetylase 7 (Homo sapiens) (UniProt Q8WUI4); experiment: Inhibition of full length N-terminal GST-tagged human HDAC7 (amino acids 518 to end) expressed in baculovirus expression system assessed as inhibition of fluorophore 7-amino-4-methylcoumarin release by fluorescence assay
T2 sequence (whole entry): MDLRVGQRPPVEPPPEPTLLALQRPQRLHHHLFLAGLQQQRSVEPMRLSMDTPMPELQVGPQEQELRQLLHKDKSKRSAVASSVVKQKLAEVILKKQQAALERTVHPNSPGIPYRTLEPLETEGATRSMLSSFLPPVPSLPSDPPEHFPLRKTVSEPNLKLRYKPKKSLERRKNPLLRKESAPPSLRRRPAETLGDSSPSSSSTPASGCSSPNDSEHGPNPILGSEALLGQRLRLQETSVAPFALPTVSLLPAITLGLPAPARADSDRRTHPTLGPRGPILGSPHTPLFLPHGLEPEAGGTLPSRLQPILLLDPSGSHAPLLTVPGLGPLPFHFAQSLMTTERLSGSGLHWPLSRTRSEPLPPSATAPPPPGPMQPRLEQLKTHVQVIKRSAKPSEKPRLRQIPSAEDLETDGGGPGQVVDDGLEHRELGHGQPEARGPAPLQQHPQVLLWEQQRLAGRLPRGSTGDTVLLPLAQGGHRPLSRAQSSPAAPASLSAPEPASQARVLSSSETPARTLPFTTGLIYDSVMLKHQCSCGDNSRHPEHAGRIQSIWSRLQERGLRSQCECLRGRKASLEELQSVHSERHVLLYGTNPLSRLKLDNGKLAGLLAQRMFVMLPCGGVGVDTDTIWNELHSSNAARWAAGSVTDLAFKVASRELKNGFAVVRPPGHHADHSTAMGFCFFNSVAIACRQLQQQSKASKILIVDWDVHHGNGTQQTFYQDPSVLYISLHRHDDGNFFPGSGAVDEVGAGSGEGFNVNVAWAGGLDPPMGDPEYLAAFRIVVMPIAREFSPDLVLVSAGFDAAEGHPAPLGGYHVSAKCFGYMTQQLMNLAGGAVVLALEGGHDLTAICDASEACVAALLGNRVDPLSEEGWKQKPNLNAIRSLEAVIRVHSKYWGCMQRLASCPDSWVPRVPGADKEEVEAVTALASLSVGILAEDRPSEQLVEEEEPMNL

[3] = molecular target: Matrix metalloproteinase-14 (Homo sapiens) (UniProt P50281); experiment: Inhibition of human recombinant […] catalytic domain (112 to 298 aa) expressed in Escherichia coli
[4] = molecular target: Matrix metalloproteinase-9 (Homo sapiens) (UniProt P14780); experiment: Inhibition of human recombinant MMP9 catalytic domain (107 to 449 aa) expressed in Escherichia coli
[5] = molecular target: Macrophage metalloelastase (Homo sapiens) (UniProt P39900); experiment: Inhibition of human recombinant MMP12 catalytic domain (99 to 271 aa) expressed in Escherichia coli
Chain of Macrophage metalloelastase (Homo sapiens) (P39900 106-470 limits assumed): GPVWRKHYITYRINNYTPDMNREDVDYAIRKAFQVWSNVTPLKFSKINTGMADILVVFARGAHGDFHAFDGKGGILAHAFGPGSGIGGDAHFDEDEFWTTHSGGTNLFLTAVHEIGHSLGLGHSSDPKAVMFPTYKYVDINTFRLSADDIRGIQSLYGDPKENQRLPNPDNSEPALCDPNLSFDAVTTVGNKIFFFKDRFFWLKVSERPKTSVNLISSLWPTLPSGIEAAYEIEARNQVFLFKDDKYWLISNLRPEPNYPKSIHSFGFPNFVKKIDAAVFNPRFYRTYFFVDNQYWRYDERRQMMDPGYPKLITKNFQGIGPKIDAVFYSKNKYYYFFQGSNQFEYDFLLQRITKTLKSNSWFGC

Chain of Matrix metalloproteinase-9 (Homo sapiens) (P14780 whole entry, the tested form may be a part): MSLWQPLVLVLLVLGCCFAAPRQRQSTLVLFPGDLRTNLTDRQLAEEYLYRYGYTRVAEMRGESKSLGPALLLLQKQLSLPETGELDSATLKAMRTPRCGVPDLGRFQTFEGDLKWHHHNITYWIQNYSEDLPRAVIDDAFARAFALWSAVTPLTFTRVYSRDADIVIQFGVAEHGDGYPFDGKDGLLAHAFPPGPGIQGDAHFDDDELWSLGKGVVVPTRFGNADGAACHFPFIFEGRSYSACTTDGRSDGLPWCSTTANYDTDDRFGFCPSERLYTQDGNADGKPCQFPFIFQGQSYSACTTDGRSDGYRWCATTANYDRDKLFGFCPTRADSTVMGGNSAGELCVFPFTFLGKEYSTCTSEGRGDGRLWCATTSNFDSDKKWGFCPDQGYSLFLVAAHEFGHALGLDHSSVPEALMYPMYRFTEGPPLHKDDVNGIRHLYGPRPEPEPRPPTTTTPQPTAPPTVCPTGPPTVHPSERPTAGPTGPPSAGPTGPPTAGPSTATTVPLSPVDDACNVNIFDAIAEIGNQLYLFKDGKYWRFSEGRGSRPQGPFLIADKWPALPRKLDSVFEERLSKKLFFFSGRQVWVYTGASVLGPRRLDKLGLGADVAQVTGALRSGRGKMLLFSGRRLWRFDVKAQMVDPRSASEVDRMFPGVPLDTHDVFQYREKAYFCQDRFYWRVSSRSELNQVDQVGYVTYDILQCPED

inhibition [1]: inactive | inhibition [2]: inactive | inhibition [3]: Active | inhibition [4]: Active | inhibition [5]: Active
SMILES: O=C(NO)c1sc2ccccc2c1S(=O)(=O)c1ccccc1
